Measured values as given in patent US20240108595A1, “COMPOSITIONS AND METHODS FOR REVERSING AGE-ASSOCIATED DENDRITIC SPINE LOSS” (UNIVERSITY OF PITTSBURGH - OF THE COMMONWEALTH SYSTEM OF …, priority 2022, published 2024).

Assays:
[1] = tested on: Fibroblast Growth Factor Receptor 2 (FGFR2); assay: Cerebral cortex proteomics (LC-MS) after amlexanox treatment of mice; assay type: in vivo, mouse; conditions: 15-month-old WT mice, 25 mg/kg amlexanox for 5 days, right cerebral cortex; unadjusted p value of log2 fold change=0.0012
Protocol: Drug administration and animal studies. […] Treatment groups were balanced for sex.
Sample Preparation. Tissue homogenate was obtained using a Bead Mill Fast Prep-24 (MP Biomedicals). Tissue was transferred into a Lysing Matrix D tube with 750 μl of homogenization solution (5% SDS with MS-SAFE Protease and Phosphatase Inhibitor) and homogenized at 6 m/s for 40 s. Homogenate was centrifuged at 13.2×g for 10 min, the supernatant was transferred to a microcentrifuge tube and total protein was quantified with BCA.
10 μg of protein from each subject was digested with trypsin at a ratio of 1:20 using S-trap micro columns (Protifi) and desalted using Pierce Peptide Desalting Spin Columns (ThermoFisher Scientific). […]
Peptide Data Analysis. Raw data files were analyzed with Proteome Discoverer (ThermoFisher Scientific) and searched against the mouse SwissProt database using Sequest HT (missed cleavages=2; minimum peptide length=6; precursor mass tolerance=10 ppm; dynamic modifications: Oxidation/+15.995 Da, Acetyl/+42.011 Da, Met-loss/−131.040 Da, Met-loss+Acetyl/[…]; static modifications: Carbamidomethyl/+57.021 Da). […]
Statistical Analysis. […] Proteins with a combined Q-value=0.01 or greater, not quantified in 100% of samples or with CV>0.3 in pooled controls were filtered out. […]
2860 proteins were quantified in all mice. […] Other Fibroblast Growth Factor Receptors were not quantified in our assay.

[2] = tested on: mouse cerebral cortex proteome; assay: Signed Jaccard Index: overlap of amlexanox-induced protein perturbations in mice with effects of proteins on dendritic spines in humans; assay type: in vivo; conditions: amlexanox/control log2 protein abundances in mouse cerebral cortex vs effects of each protein on density of large dendritic spines in human cohort
Protocol: then the net effect of amlexanox treatment was evaluated on proteins which, in our human data, were associated with age related dendritic spine density reductions. The Signed Jaccard Index (SJI) was calculated to estimate the net overlap of amlexanox-induced protein perturbations in mice with the effects of proteins on dendritic spines in humans. The relative log2-transformed abundances for each protein in amlexanox/control groups were compared with the effects of each protein on the density of large dendritic spines extracted from the mediation analysis from our human cohort (described in Example 1) as follows:
An SJI of 0.013 compares favorably to the mean SJI reported for all drug-disease indication pairs (absolute value=0.004), indicating it is compatible with therapeutic activity. However, the SJI of 0.013 observed was lower in magnitude than the mean SJI reported for drug-disease pairs indicated specifically for CNS disorders (absolute value=0.033).

[3] = mouse, in vivo, ip, 100 mg/kg
Protocol: Drug administration and animal studies. […] A modified tolerability score was used to estimate drug tolerability. […] Male and female 15-month-old WT mice were randomly allocated to receive either 25 mg/kg amlexanox (n=9) or equivalent volume vehicle (n=10) for 5 days. Treatment groups were balanced for sex. On day 5, mice were sacrificed, perfused with normal saline, and the right cerebral cortex was isolated and immediately frozen on dry ice for proteomics.

Q: With `CC(C)c1ccc2oc3nc(N)c(C(=O)O)cc3c(=O)c2c1` [amlexanox, Amlexanox] as the compound, how does the “relative abundance of FGFR2 (amlexanox/control)” value [1] read?
A: Its value is 0.69.

Q: What about the “Signed Jaccard Index (SJI)” value [2] of the same compound?
A: The value was 0.013.

Q: What about the modified tolerability score [3] of the same compound?
A: Its modified tolerability score is “elevated tolerability scores”.
